# Test results reported in patent US6706704B2 (priority 2001, dated 2004).
# Legend:
# [1] = system: CO2 responsiveness of phrenic nerve activity; design: species or system cat; details: in vivo
# [2] = system: bulbospinal Aug-I neurons of the VRG; assay: Iontophoresis of DAMGO and opioid receptor blockers on bulbospinal inspiratory (Aug-I) neurons, extracellular recording; assay type: in vivo, cat; details: for effect of opioid receptor blocker on DAMGO-mediated depression: naloxonazine 50-90 nA (15 neurons), naltrindole 50-100 nA (10 neurons)
# [3] = system: D1-dopamine receptors (phrenic nerve activity); design: species or system cat; details: in vivo
smiles,measurement,setting,value
"Br.C=CCN1CCc2c(cc(O)c(O)c2Cl)C(c2ccccc2)C1 (racemic) [(±)-chloro-APB, (+/−)6-chloro-7,8-dihydroxy-3-allyl-1-phenyl-2,3,4,5-tetrahydro-1H-3-benzazepine hydrobromide]",sensitivity of PN activity to CO2,[1],did not significantly alter the sensitivity of PN activity to CO2
"C[C@@H](NC(=O)[C@@H](N)Cc1ccc(O)cc1)C(=O)NCC(=O)N(C)[C@@H](Cc1ccccc1)C(=O)NCCO [DAMGO, D-Ala^2,N-Me-Phe^4,Gly-ol^5-Enkephalin]",DAMGO-mediated depression,[2]; DAMGO without blocker,50-85%
same,time to restoration of control activity during recovery,[2]; after DAMGO iontophoresis,60 to 90 s
same,action potential frequency,"[2]; iontophoresis 1-3 minutes, 50-90 nA ejecting currents",50-85 % of control
same,effect on discharges of Aug-I neurons,"[2]; iontophoresis, 25 neurons, pentobarbital-anesthetized cats",depressed discharges of all Aug-I neurons
C=CCN1CC[C@]23c4c5ccc(O)c4O[C@H]2/C(=N/N=C2\CC[C@@]4(O)[C@H]6Cc7ccc(O)c8c7[C@@]4(CCN6CC=C)[C@H]2O8)CC[C@@]3(O)[C@H]1C5 [Naloxonazine],DAMGO-mediated depression,[2]; in the presence of Naloxonazine (50-90 nA),20-35%
same,effect of opioid receptor blocker on DAMGO-mediated depression,[2]; iontophoresis,blocked DAMGO-mediated depression in all neurons tested
Oc1ccc2c3c1O[C@H]1c4[nH]c5ccccc5c4C[C@@]4(O)[C@@H](C2)N(CC2CC2)CC[C@]314 [Naltrindole],effect of opioid receptor blocker on DAMGO-mediated depression,[2]; iontophoresis,without effect on all neurons tested
"CN1CCc2cc(Cl)c(O)cc2[C@@H](c2ccccc2)C1 [R(+)-SCH-23390, (R)(+)-7-chloro-8-hydroxy-3-methyl-1-phenyl-2,3,4,5-tetrahydro-1H-3-benzazepine]",effect of D1 antagonist on D1 agonist effects,[3],blocked D1 agonist effects
